# Test results reported in ChEMBL document CHEMBL1136423, “Phosphate ester serum albumin affinity tags greatly improve peptide half-life in vivo” (Bioorg Med Chem Lett, 2003).
# Where a SMILES comes first, the peptide text is derived from it. Bridges are numbered along the chain shown (N, C = ends). The star is where a group is joined. X3 = O=C(CCCCCOP(=O)(O)OC1CCC(c2ccccc2)(c2ccccc2)CC1)*; X4 = O=C(CCC(=O)*)NS(=O)(=O)c1ccc2ccccc2c1; X2 = O=C(CCCCCOP(=O)(O)Oc1ccc2ccccc2c1)*; X1 = O=C(CCCCCOP(=O)(O)OCCCCCc1ccccc1)*
# Biological target: Albumin (Oryctolagus cuniculus) (UniProt P49065)
# Sequence (P49065 whole entry, looked up): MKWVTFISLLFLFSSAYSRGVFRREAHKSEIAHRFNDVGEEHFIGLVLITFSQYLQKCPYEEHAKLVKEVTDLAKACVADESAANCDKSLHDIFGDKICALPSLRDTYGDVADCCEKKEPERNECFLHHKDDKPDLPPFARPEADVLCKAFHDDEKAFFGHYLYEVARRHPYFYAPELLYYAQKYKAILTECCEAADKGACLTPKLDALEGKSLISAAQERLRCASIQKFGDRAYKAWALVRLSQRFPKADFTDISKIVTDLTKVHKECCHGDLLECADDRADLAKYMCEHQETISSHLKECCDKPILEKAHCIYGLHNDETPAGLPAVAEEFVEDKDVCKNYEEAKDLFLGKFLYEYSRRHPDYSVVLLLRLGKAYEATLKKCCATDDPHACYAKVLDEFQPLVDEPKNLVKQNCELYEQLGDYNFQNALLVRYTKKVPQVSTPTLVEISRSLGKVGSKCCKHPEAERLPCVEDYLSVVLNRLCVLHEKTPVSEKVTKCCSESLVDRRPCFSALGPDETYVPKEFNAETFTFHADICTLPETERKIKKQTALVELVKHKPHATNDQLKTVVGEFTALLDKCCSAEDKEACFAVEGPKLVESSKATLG
# Assay: Compound was measured for its retention time in rabbit serum albumin;where k`=tt-t0/t0; tt=retention time of compound and t0=retention time of DMSO
row,SMILES,k'/k'+1
1,CC[C@H](C)[C@@H]1NC(=O)[C@H](CCCN=C(N)N)NC(=O)[C@@H]2CCCN2C(=O)[C@H](CC(N)=O)NC(=O)[C@H](CC(=O)O)NC(=O)[C@@H](NC(=O)[C@H](CC(C)C)NC(=O)[C@H](C)NC(C)=O)CSSC[C@@H](C(=O)N[C@@H](CCC(N)=O)C(=O)N[C@@H](Cc2ccccc2)C(=O)N[C@H](C(=O)N[C@@H](CCC(=O)O)C(=O)NCC(N)=O)C(C)C)NC(=O)[C@H](Cc2ccc(O)cc2)NC(=O)[C@H](Cc2c[nH]c3ccccc23)NC(=O)[C@H](CCCN=C(N)N)NC(=O)[C@H](CC(=O)O)NC1=O (Ac-ALCDNPRIDRWYCQFVEG-NH2; disulfide 3-13),0.39
2,CC[C@H](C)[C@@H]1NC(=O)[C@H](CCCN=C(N)N)NC(=O)[C@@H]2CCCN2C(=O)[C@H](CC(N)=O)NC(=O)[C@H](CC(=O)O)NC(=O)[C@@H](NC(=O)[C@H](CC(C)C)NC(=O)[C@H](C)NC(=O)CCCCCOP(=O)(O)OC2CCC(c3ccccc3)(c3ccccc3)CC2)CSSC[C@@H](C(=O)N[C@@H](CCC(N)=O)C(=O)N[C@@H](Cc2ccccc2)C(=O)N[C@H](C(=O)N[C@@H](CCC(=O)O)C(=O)NCC(N)=O)C(C)C)NC(=O)[C@H](Cc2ccc(O)cc2)NC(=O)[C@H](Cc2c[nH]c3ccccc23)NC(=O)[C@H](CCCN=C(N)N)NC(=O)[C@H](CC(=O)O)NC1=O (X3-ALCDNPRIDRWYCQFVEG-NH2; disulfide 3-13),0.97
3,CC[C@H](C)[C@@H]1NC(=O)[C@H](CCCN=C(N)N)NC(=O)[C@@H]2CCCN2C(=O)[C@H](CC(N)=O)NC(=O)[C@H](CC(=O)O)NC(=O)[C@@H](NC(=O)[C@H](CC(C)C)NC(=O)[C@H](C)NC(=O)CCCCCOP(=O)(O)Oc2ccc3ccccc3c2)CSSC[C@@H](C(=O)N[C@@H](CCC(N)=O)C(=O)N[C@@H](Cc2ccccc2)C(=O)N[C@H](C(=O)N[C@@H](CCC(=O)O)C(=O)NCC(N)=O)C(C)C)NC(=O)[C@H](Cc2ccc(O)cc2)NC(=O)[C@H](Cc2c[nH]c3ccccc23)NC(=O)[C@H](CCCN=C(N)N)NC(=O)[C@H](CC(=O)O)NC1=O (X2-ALCDNPRIDRWYCQFVEG-NH2; disulfide 3-13),0.97
4,CC[C@H](C)[C@@H]1NC(=O)[C@H](CCCN=C(N)N)NC(=O)[C@@H]2CCCN2C(=O)[C@H](CC(N)=O)NC(=O)[C@H](CC(=O)O)NC(=O)[C@@H](NC(=O)[C@H](CC(C)C)NC(=O)[C@H](C)NC(=O)CCC(=O)NS(=O)(=O)c2ccc3ccccc3c2)CSSC[C@@H](C(=O)N[C@@H](CCC(N)=O)C(=O)N[C@@H](Cc2ccccc2)C(=O)N[C@H](C(=O)N[C@@H](CCC(=O)O)C(=O)NCC(N)=O)C(C)C)NC(=O)[C@H](Cc2ccc(O)cc2)NC(=O)[C@H](Cc2c[nH]c3ccccc23)NC(=O)[C@H](CCCN=C(N)N)NC(=O)[C@H](CC(=O)O)NC1=O (X4-ALCDNPRIDRWYCQFVEG-NH2; disulfide 3-13),0.98
5,CC[C@H](C)[C@@H]1NC(=O)[C@H](CCCN=C(N)N)NC(=O)[C@@H]2CCCN2C(=O)[C@H](CC(N)=O)NC(=O)[C@H](CC(=O)O)NC(=O)[C@@H](NC(=O)[C@H](CC(C)C)NC(=O)[C@H](C)NC(=O)CCCCCOP(=O)(O)OCCCCCc2ccccc2)CSSC[C@@H](C(=O)N[C@@H](CCC(N)=O)C(=O)N[C@@H](Cc2ccccc2)C(=O)N[C@H](C(=O)N[C@@H](CCC(=O)O)C(=O)NCC(N)=O)C(C)C)NC(=O)[C@H](Cc2ccc(O)cc2)NC(=O)[C@H](Cc2c[nH]c3ccccc23)NC(=O)[C@H](CCCN=C(N)N)NC(=O)[C@H](CC(=O)O)NC1=O (X1-ALCDNPRIDRWYCQFVEG-NH2; disulfide 3-13),0.98
